PMC8953660, “Selective measurement of NAPE-PLD activity via a PLA1/2-resistant fluorogenic N-acyl-phosphatidylethanolamine analog” (Journal of Lipid Research, 2021)
Like-named read-outs stand apart in the source and are kept apart here.

Biological target: T1, recombinant mouse Nape-pld (NAPE-PLD) (Mus musculus, UniProt Q8BH82)
T1 construct: gene Napepld
Settings: 50 mM Tris-HCl pH 8.0, N-octyl-β-D-glucoside, 37 °C, allosteric sigmoidal fit

T1 sequence (Q8BH82 whole entry): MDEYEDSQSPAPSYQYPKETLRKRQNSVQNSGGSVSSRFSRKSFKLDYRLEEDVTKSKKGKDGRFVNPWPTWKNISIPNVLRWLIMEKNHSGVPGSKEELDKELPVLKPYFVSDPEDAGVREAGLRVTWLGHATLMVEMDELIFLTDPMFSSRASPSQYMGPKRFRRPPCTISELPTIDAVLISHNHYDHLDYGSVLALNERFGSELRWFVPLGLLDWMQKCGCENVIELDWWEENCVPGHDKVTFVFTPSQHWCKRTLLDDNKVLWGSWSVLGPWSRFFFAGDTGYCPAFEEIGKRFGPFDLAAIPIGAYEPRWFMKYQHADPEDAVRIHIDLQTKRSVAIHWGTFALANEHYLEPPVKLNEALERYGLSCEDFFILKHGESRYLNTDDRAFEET

In the case of CCCCCCO[C@@H](COP(=O)(O)OCCNC(=O)CCCCCNc1ccc([N+](=O)[O-])cc1[N+](=O)[O-])CN(C)C(=O)CCCCc1ccc2n1[B-](F)(F)[N+]1=C(C)C=C(C)C1=C2 [flame-NAPE], the Km (authors note evidence of an inadequate regression model for flame-NAPE) is reported as 9.2 µM.

With CCCCCCO[C@H](COC(=O)CCCCC1=[N+]2C(=Cc3c(C)cc(C)n3[B-]2(F)F)C=C1)COP(=O)(O)OCCNC(=O)CCCCCNc1ccc([N+](=O)[O-])cc1[N+](=O)[O-] [PED-A1] the Km was 4 µM.
